Drawing on patent publication EP4782434A1, “N-SULFONYL CARBOXAMIDE COMPOUND, AND PREPARATION METHOD THEREFOR AND USE THEREOF” (Nutshell Therapeutics (Shanghai) Co., Ltd., priority 2023, dated 2025), this text covers IC50 for three compounds.

One experiment has as its system DLD-1 BRCA2-/- cells. Kind of experiment: DLD-1 BRCA2-/- cell proliferation assay (CellTiter-Glo, 10 days incubation). Format: cell-based. To be noted: Homo sapiens, 240 h, DLD-1 BRCA2-/- cell line, total incubation period of 10 days, read-out: DLD1 BRCA2^-/- IC50. The text has this: The anti-proliferative effect of the compounds on the human colorectal adenocarcinoma cell line DLD-1 BRCA2^-/- method.
• DLD-1 (purchased from ATCC, Cat. No.: CCL-221, Batch No.: 70033255); • RPMI1640 (purchased from Invitrogen, Cat. No.: 11875-085); • 0.25% Trypsin-EDTA (purchased from Invitrogen, Cat. No.: 25200-072); • Penicillin-Streptomycin solution (purchased from Hyclone, Cat. No.: SV30010); • FBS (purchased from BI, Cat. No.: 04-002-1A); • DMSO (purchased from Sigma, Cat. No.: D4540-1L); • 96-well plate (purchased from Corning, Cat. No.: CLS3903); • CellTiter-Glo reagent (purchased from Promega, Cat. No.: G7558).
The anti-proliferative effect of the compounds on a human colorectal adenocarcinoma cell line was evaluated using an ATP quantification method, wherein the measured activity correlates well with the number of viable cells. The genetically edited cell line DLD-1 BRCA2^-/- was cultured in RPMI 1640 medium (Invitrogen, 11875-085) supplemented with 10% (v/v) fetal bovine serum (BI, 04-002-1A). The cell line was cultured according to the standard instructions of the American Type Culture Collection (ATCC) and identified via short tandem repeat (STR) genotyping.
In the proliferation assay, cells were harvested and resuspended in cell culture medium. Cell density was determined using a cell counter. An appropriate volume of cell suspension was aspirated from the centrifuge tube to prepare a plating working solution (150 cells/100 µL for the DLD-1 BRCA2^-/- cell line). 100 µL of the cell suspension was seeded into each well of a 96-well plate (Corning, 3603) and incubated overnight in an incubator. The diluted test compound solutions were added to the wells. On the fourth and seventh days of compound incubation, the medium was replaced with fresh culture medium, and the compounds were re-administered, for a total incubation period of 10 days. Following incubation, the cell culture plates were removed and equilibrated to room temperature. 100 µL of CellTiter-Glo (Promega, G7558) was added to each well, and the plate was incubated at room temperature for 30 minutes. Data were read using a microplate reader (PerkinElmer, Enspire) in 96-well luminescence mode. Data analysis, curve fitting, and reporting were performed using the dose-response one-site 205 model of IDBS XL fit. Table 2: Proliferation inhibitory activity of compounds against DLD-1 BRCA2-/- cells

The target in the next experiment is T1, Polθ ATPase (Homo sapiens, UniProt O75417).
T1 construct: purified truncated POLQ-N protein (aa 1-894, N-terminal 6-His tag); 6-His (N)
Description: Polθ ATPase activity assay (ADP-Glo Kinase Assay kit). Format: biochemical. The following applies: truncated POLQ-N protein (aa 1-894) 1 nM, 50 nM ssDNA, 50 µM ATP. The method, then:
The inhibitory efficiency of the compounds of formula (I) against Polθ ATPase activity was determined using the ADP-Glo Kinase Assay kit (Promega, V9101). […] The starting (final) concentration was 100 nM, followed by a 3-fold serial dilution for a total of 10 concentration points in duplicate (n=2). 5 μL of purified […], N-terminal 6-His tag) was added to each well. After centrifugation at 1000 rpm for 1 minute, the plate was incubated at 25°C for 10 minutes. 5 μL of substrate reaction solution (containing ATP & ssDNA) was added to each well, and the reaction was carried out at 25°C for 60 minutes. 5 μL of ADP-Glo Reagent was added to each well. After centrifugation at 1000 rpm for 1 minute, the plate was incubated at 25°C for 40 minutes. 10 μL of detection solution was added to each well. After centrifugation at 1000 rpm for 1 minute, the plate was incubated at 25°C for 40 minutes. Luminescence signals were recorded using a microplate reader (BMG, PHERAstar FSX). The final reaction system contained 1 nM of POLQ-N enzyme; 50 nM of ssDNA ([NT]); 50 μM of ATP; and 1% DMSO. The inhibition percentage (%) of the compound at each concentration was calculated using the RFU values normalized against the control wells within each assay plate. Table 1: Inhibitory activity of compounds against Polθ ATPase
(In ADP-Glo the light output rises with the ADP produced.)

Structures are written as SMILES.

T1 sequence (O75417 1-894): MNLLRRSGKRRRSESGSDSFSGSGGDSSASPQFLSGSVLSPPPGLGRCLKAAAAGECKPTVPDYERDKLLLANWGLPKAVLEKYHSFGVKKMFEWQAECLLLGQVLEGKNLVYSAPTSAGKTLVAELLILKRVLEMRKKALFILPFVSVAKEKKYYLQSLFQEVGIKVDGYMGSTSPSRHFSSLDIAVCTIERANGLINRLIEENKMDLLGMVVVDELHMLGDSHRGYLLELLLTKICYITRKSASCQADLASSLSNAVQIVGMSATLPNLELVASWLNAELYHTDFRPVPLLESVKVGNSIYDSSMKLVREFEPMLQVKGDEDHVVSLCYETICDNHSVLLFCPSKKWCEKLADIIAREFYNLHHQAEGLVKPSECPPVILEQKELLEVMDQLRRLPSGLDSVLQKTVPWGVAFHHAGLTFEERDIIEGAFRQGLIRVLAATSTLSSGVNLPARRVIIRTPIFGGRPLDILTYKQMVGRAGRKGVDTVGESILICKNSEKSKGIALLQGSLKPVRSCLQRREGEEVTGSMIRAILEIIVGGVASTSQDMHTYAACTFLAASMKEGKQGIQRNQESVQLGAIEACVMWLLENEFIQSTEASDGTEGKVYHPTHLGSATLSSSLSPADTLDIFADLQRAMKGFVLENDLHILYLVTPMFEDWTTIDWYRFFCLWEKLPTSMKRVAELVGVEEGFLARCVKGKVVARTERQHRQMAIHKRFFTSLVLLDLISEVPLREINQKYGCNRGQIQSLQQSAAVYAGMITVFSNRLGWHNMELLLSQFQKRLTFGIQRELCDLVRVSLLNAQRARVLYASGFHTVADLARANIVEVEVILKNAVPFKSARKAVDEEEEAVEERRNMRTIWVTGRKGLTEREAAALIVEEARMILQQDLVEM

As to `COc1cnc(Cl)cc1-c1cc(C)ncc1C(=O)Nc1nnc(OC[C@H]2COCCO2)s1` [Ref. 1, reference compound], the IC50 was 21 nM with DLD-1 BRCA2-/- cells, 2 to 10 nM against Polθ ATPase (class symbols) and 2.2 nM on Polθ ATPase (specific values).

Regarding `[2H]C([2H])([2H])O[C@@H](C)c1ccc(CS(=O)(=O)NC(=O)c2ccc(C([2H])([2H])[2H])cc2-c2cc(C(F)F)ncc2OC)cc1` [cpd-16, (S)-2-(2-(Difluoromethyl)-5-methoxypyridin-4-yl)-N-((4-(1-(methoxy-d3)ethyl)benzyl)sulfonyl)-4-(methyl-d3)benzamide], the IC50 was 24 nM in the experiment with DLD-1 BRCA2-/- cells, no more than 2 nM against Polθ ATPase (class symbols) and 0.39 nM on Polθ ATPase (specific values).

`[2H]C([2H])([2H])O[C@@H](C)c1ccc(CS(=O)(=O)NC(=O)c2ccc(C([2H])([2H])[2H])cc2-c2cc(Cl)ncc2OC)cc1` [cpd-17, (S)-2-(2-Chloro-5-methoxypyridin-4-yl)-N-((4-(1-(methoxy-d3)ethyl)benzyl)sulfonyl)-4-(methyl-d3)benzamide]: the IC50 is 16 nM with DLD-1 BRCA2-/- cells, no more than 2 nM on Polθ ATPase (class symbols) and 1.4 nM against Polθ ATPase (specific values).
